In patent publication US10294229B2, “Heteroaryl substituted aminopyridine compounds” (BRISTOL-MYERS SQUIBB COMPANY, priority 2015, dated 2019):
Each block holds one molecule with its values, some of them ahead of it.

Tests used:
[1] = biological target: IRAK4 (Homo sapiens (Human), UniProt Q9NWZ3); assay: IRAK4 Inhibition Assay; format: biochemical; details: ATP 500 μM; IRAK4 0.6 nM
Outline: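 Enzyme 0.6 nM, ATP 500 μM, FL-peptide 1.5 μM, DMSO 1.6%; HEPES pH 7.2/MgCl2/Brij 35/DTT buffer. RT, 60 min, EDTA stop. Mobility-shift product/substrate ratio; % inhib vs no-enzyme and vehicle controls.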

[2] = Caco-2 Permeability Assay; format: in vitro ADME; details: human, Caco-2, test compound 3 μM
Description: Caco-2 Permeability Assay
Thirteen to 27 days prior to assay, Caco-2 cells were seeded onto collagen-coated polycarbonate filter membranes in 24-well transwell plates at a density of 1.45×10^5 cells/cm^2, approximately 4.8×10^4 cells per well. The cells were grown in a culture medium consisting of DMEM supplemented with 10% fetal bovine serum, 10 mM HEPES, 1% nonessential amino acids, 2 mM L-glutamine, 100 U/mL penicillin-G, and 100 μg/mL streptomycin. The culture medium was replaced every 3 days and the cells were maintained at 37° C. in a 95% relative humidity and 5% CO2 atmosphere. The cells were evaluated for tight junction formation just prior to assay. The test compound was solubilized to 10 mM in 100% DMSO and diluted to 3 μM in assay buffer. Permeability studies were initiated by adding 200 μL assay buffer plus/minus compound to the apical transwell compartment and 600 μL assay buffer plus/minus compound to the basolateral compartment of the 24-well transwell low-binding cluster plate. For apical-to-basolateral (A to B) permeability (absorptive direction), buffer containing compound was placed in the apical compartment (donor wells), while buffer alone was placed in the corresponding basolateral compartments (receiver wells). For basolateral-to-apical (B to A) permeability (secretive direction), buffer containing compound was placed in the basolateral compartment (donor wells), while buffer alone was placed in the corresponding apical compartments (receiver wells). Transwells were then incubated for 2 hours at 37° C. in a 95% relative humidity and 5% CO2 atmosphere with gentle agitation. Following incubation, 100 μL was removed from each apical and basolateral compartment and transferred to 96-well low binding plates that had been previously loaded with 100 μL/well of acetonitrile containing 250 nM propranolol, 250 nM diclofenac, and 500 nM tolbutamide as internal standards. The samples were subsequently analyzed by LC-MS/MS to determine concentrations of compound.

[3] = test system: Human whole blood stimulated with a TLR2 agonist (lipoteichoic acid), IL-6 levels; assay: IRAK4 Whole Blood Assay; format: cell-based; details: lipoteichoic acid 10 μg/mL
Outline: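 ACD-A-anticoagulated human whole blood was preincubated with compounds for 60 min at 37 °C under 5% CO2. It was then stimulated with 10 μg/mL lipoteichoic acid (final) in RPMI for 5 h. IL-6 in plasma supernatants was measured by flow cytometry bead assay.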

Chain of IRAK4 (Q9NWZ3 whole entry, species assumed): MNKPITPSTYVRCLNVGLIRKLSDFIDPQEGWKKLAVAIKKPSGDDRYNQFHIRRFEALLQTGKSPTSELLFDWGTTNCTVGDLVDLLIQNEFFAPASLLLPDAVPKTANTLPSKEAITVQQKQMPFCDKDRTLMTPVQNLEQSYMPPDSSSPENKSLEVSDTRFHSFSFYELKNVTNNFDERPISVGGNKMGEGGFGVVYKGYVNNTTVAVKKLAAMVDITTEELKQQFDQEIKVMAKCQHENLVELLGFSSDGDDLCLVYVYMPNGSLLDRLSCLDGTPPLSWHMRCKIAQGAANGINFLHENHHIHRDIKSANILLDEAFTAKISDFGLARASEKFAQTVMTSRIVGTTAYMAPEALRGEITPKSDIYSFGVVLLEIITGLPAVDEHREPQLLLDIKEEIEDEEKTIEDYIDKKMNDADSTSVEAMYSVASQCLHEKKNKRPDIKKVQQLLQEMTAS

IC50 [1]: 11 nM
Papp at 2 h, 3 µM [2]: 2.8 ×10⁻⁶ cm/s
EC50 ([3]; Homo sapiens): 1950 nM
SMILES: CC(C)Nc1cc(-n2ncc3cc(C#N)cnc32)ncc1-c1cn(CCO)nn1 [Example 11, 1-(5-(1-(2-hydroxyethyl)-1H-1,2,3-triazol-4-yl)-4-(isopropylamino)pyridin-2-yl)-1H-pyrazolo[3,4-b]pyridine-5-carbonitrile]

IC50 [1]: 7 nM
Papp at 2 h, 3 µM [2]: < 1.5 ×10⁻⁶ cm/s
EC50 ([3]; Homo sapiens): 400 nM
SMILES: CC(C)Nc1cc(-n2ncc3cc(C#N)cnc32)ncc1-c1cn([C@H]2CCN(S(C)(=O)=O)C[C@H]2O)nn1 [Example 181, 1-(5-(1-((3R,4S)-3-hydroxy-1-(methylsulfonyl)piperidin-4-yl)-1H-1,2,3-triazol-4-yl)-4-(isopropylamino)pyridin-2-yl)-1H-pyrazolo[3,4-b]pyridine-5-carbonitrile]

IC50 [1]: 6 nM
Papp at 2 h, 3 µM [2]: 6.4 ×10⁻⁶ cm/s
EC50 ([3]; Homo sapiens): 120 nM
SMILES: CC(C)Nc1cc(-n2ncc3cc(C#N)cnc32)ncc1-n1cc(CCCCO)nn1 [Example 311, 1-(5-(4-(4-hydroxybutyl)-1H-1,2,3-triazol-1-yl)-4-(isopropylamino)pyridin-2-yl)-1H-pyrazolo [3,4-b]pyridine-5-carbonitrile]

IC50 [1]: 5 nM
Papp at 2 h, 3 µM [2]: 33.9 ×10⁻⁶ cm/s
EC50 ([3]; Homo sapiens): 160 nM
SMILES: CCn1cc(-c2cnc(-n3ncc4cc(C#N)cnc43)cc2NC(C)C)nn1 [Example 37, 1-(5-(1-ethyl-1H-1,2,3-triazol-4-yl)-4-(isopropylamino)pyridin-2-yl)-1H-pyrazolo[3,4-b]pyridine-5-carbonitrile]

IC50 [1]: 5 nM
Papp at 2 h, 3 µM [2]: 14 ×10⁻⁶ cm/s
EC50 ([3]; Homo sapiens): 850 nM
SMILES: CC(C)Nc1cc(-n2ncc3cc(C#N)cnc32)ncc1-c1cn(CC2CC2)nn1 [Example 16, 1-(5-(1-(cyclopropylmethyl)-1H-1,2,3-triazol-4-yl)-4-(isopropylamino)pyridin-2-yl)-1H-pyrazolo[3,4-b]pyridine-5-carbonitrile]

IC50 [1]: 13 nM
Papp at 2 h, 3 µM [2]: 41 ×10⁻⁶ cm/s
EC50 ([3]; Homo sapiens): 170 nM
SMILES: N#Cc1cnc2c(cnn2-c2cc(NC3CC3)c(-n3cc(C4CCOCC4)nn3)cn2)c1 [Example 348, 1-(4-(cyclopropylamino)-5-(4-(tetrahydro-2H-pyran-4-yl)-1H-1,2,3-triazol-1-yl)pyridin-2-yl)-1H-pyrazolo[3,4-b]pyridine-5-carbonitrile]

IC50 [1]: 4 nM
Papp at 2 h, 3 µM [2]: 23.4 ×10⁻⁶ cm/s
EC50 ([3]; Homo sapiens): 310 nM
SMILES: CC(C)Nc1cc(-n2ncc3cc(C#N)cnc32)ncc1-c1cn(CCN2CCOCC2)nn1 [Example 12, 1-(4-(isopropylamino)-5-(1-(2-morpholinoethyl)-1H-1,2,3-triazol-4-yl)pyridin-2-yl)-1H-pyrazolo[3,4-b]pyridine-5-carbonitrile]

IC50 [1]: 6 nM
Papp at 2 h, 3 µM [2]: 36.1 ×10⁻⁶ cm/s
EC50 [3]: 110 nM
SMILES: CC(F)Cn1cc(-c2cnc(-n3ncc4cc(C#N)cnc43)cc2NC(C)C)nn1 (single isomer, unassigned; enantiomer 1) [Example 166, 1-(5-(1-(2-fluoropropyl)-1H-1,2,3-triazol-4-yl)-4-(isopropylamino)pyridin-2-yl)-1H-pyrazolo[3,4-b]pyridine-5-carbonitrile, enantiomer 1]

IC50 [1]: 6 nM
Papp at 2 h, 3 µM [2]: 47.4 ×10⁻⁶ cm/s
EC50 ([3]; Homo sapiens): 200 nM
SMILES: CC(F)Cc1cn(-c2cnc(-n3ncc4cc(C#N)cnc43)cc2NC(C)C)nn1 (single isomer, unassigned) [Example 289, 1-(5-(4-(2-fluoropropyl)-1H-1,2,3-triazol-1-yl)-4-(isopropylamino)pyridin-2-yl)-1H-pyrazolo [3,4-b]pyridine-5-carbonitrile]

IC50 [1]: 7 nM
Papp at 2 h, 3 µM [2]: 5.6 ×10⁻⁶ cm/s
EC50 ([3]; Homo sapiens): 360 nM
SMILES: CC(C)Nc1cc(-n2ncc3cc(C#N)cnc32)ncc1-n1cc(C2CCN(S(C)(=O)=O)CC2)nn1 [Example 361, 1-(4-(isopropylamino)-5-(4-(1-(methylsulfonyl)piperidin-4-yl)-1H-1,2,3-triazol-1-yl)pyridin-2-yl)-1H-pyrazolo[3,4-b]pyridine-5-carbonitrile]

IC50 [1]: 4 nM
Papp at 2 h, 3 µM [2]: 12.5 ×10⁻⁶ cm/s
EC50 ([3]; Homo sapiens): 260 nM
SMILES: CC(=O)N1CC[C@H](c2cc(-c3cnc(-n4ncc5cc(C#N)cnc54)cc3NC(C)C)on2)C1 [Example 405, (S)-1-(5-(3-(1-acetylpyrrolidin-3-yl)isoxazol-5-yl)-4-(isopropylamino)pyridin-2-yl)-1H-pyrazolo[3,4-b]pyridine-5-carbonitrile]

IC50 [1]: 2 nM
Papp at 2 h, 3 µM [2]: 19.2 ×10⁻⁶ cm/s
EC50 ([3]; Homo sapiens): 250 nM
SMILES: CC(=O)N1CCC(c2cc(-c3cnc(-n4ncc5cc(C#N)cnc54)cc3NC(C)C)on2)CC1 [Example 402, 1-(5-(3-(1-acetylpiperidin-4-yl)isoxazol-5-yl)-4-(isopropylamino)pyridin-2-yl)-1H-pyrazolo[3,4-b]pyridine-5-carbonitrile]

Second part, the molecule before the results:

SMILES: CC(C)(O)CCc1cn(-c2cnc(-n3ncc4cc(C#N)cnc43)cc2NC2CC(F)(F)C2)nn1 [Example 367, 1-(4-((3,3-difluorocyclobutyl)amino)-5-(4-(3-hydroxy-3-methylbutyl)-1H-1,2,3-triazol-1-yl)pyridin-2-yl)-1H-pyrazolo[3,4-b]pyridine-5-carbonitrile]
IC50 [1]: 9 nM
Papp at 2 h, 3 µM [2]: 3.6 ×10⁻⁶ cm/s
EC50 ([3]; Homo sapiens): 230 nM

SMILES: CCCn1cc(-c2cnc(-n3ncc4cc(C#N)cnc43)cc2Nc2cnn(CC(F)F)c2)nn1 [Example 60, 1-(4-((1-(2,2-difluoroethyl)-1H-pyrazol-4-yl)amino)-5-(1-propyl-1H-1,2,3-triazol-4-yl)pyridin-2-yl)-1H-pyrazolo[3,4-b]pyridine-5-carbonitrile]
IC50 [1]: 2 nM
Papp at 2 h, 3 µM [2]: 11.9 ×10⁻⁶ cm/s
EC50 ([3]; Homo sapiens): 250 nM

SMILES: CCCn1cc(-c2cnc(-n3cnc4cnc(N)nc43)cc2NC(C)C)nn1 [Example 62, 9-(4-(isopropylamino)-5-(1-propyl-1H-1,2,3-triazol-4-yl)pyridin-2-yl)-9H-purin-2-amine]
IC50 [1]: 4 nM
Papp at 2 h, 3 µM [2]: 32.1 ×10⁻⁶ cm/s
EC50 ([3]; Homo sapiens): 140 nM

SMILES: CC(C)Nc1cc(-n2ncc3cc(C#N)cnc32)ncc1-c1cn(CCC(F)(F)F)nn1 [Example 41, 1-(4-(isopropylamino)-5-(1-(3,3,3-trifluoropropyl)-1H-1,2,3-triazol-4-yl)pyridin-2-yl)-1H-pyrazolo[3,4-b]pyridine-5-carbonitrile]
IC50 [1]: 4 nM
Papp at 2 h, 3 µM [2]: 27.8 ×10⁻⁶ cm/s
EC50 ([3]; Homo sapiens): 320 nM

SMILES: CC(C)Nc1cc(-n2ncc3cc(C#N)cnc32)ncc1-c1cc(C2CC(F)(F)CCN2)no1 (stereo not drawn) [Example 422, 1-(5-(3-(4,4-difluoropiperidin-2-yl)isoxazol-5-yl)-4-(isopropylamino)pyridin-2-yl)-1H-pyrazolo [3,4-b]pyridine-5-carbonitrile]
IC50 [1]: 3 nM
Papp at 2 h, 3 µM [2]: 31.7 ×10⁻⁶ cm/s
EC50 ([3]; Homo sapiens): 480 nM

SMILES: CNCCCc1cc(-c2cnc(-n3ncc4cc(C#N)cnc43)cc2NC(C)C)on1 [Example 414, 1-(4-(isopropylamino)-5-(3-(3-(methylamino)propyl)isoxazol-5-yl)pyridin-2-yl)-1H-pyrazolo[3,4-b]pyridine-5-carbonitrile]
IC50 [1]: 7 nM
Papp at 2 h, 3 µM [2]: < 1.5 ×10⁻⁶ cm/s
EC50 ([3]; Homo sapiens): 250 nM

SMILES: CC(C)Nc1cc(-n2ncc3cc(C#N)cnc32)ncc1-c1cn(CCc2ccccc2)nn1 [Example 56, 1-(4-(isopropylamino)-5-(1-phenethyl-1H-1,2,3-triazol-4-yl)pyridin-2-yl)-1H-pyrazolo [3,4-b]pyridine-5-carbonitrile]
IC50 [1]: 3 nM
Papp at 2 h, 3 µM [2]: 7.2 ×10⁻⁶ cm/s
EC50 ([3]; Homo sapiens): 180 nM

SMILES: CC(C)(O)CCc1cn(-c2cnc(-n3ncc4cc(C#N)cnc43)cc2NC2COCC2F)nn1 (stereo not drawn) [Example 379, 1-(4-((4-fluorotetrahydrofuran-3-yl)amino)-5-(4-(3-hydroxy-3-methylbutyl)-1H-1,2,3-triazol-1-yl)pyridin-2-yl)-1H-pyrazolo [3,4-b]pyridine-5-carbonitrile]
IC50 [1]: 5 nM
Papp at 2 h, 3 µM [2]: < 1.5 ×10⁻⁶ cm/s
EC50 ([3]; Homo sapiens): 140 nM

SMILES: CC(C)Nc1cc(-n2ncc3cc(C#N)cnc32)ncc1-c1cc(C2COC(C)(C)CN2)no1 (stereo not drawn) [Example 423, 1-(5-(3-(6,6-dimethylmorpholin-3-yl)isoxazol-5-yl)-4-(isopropylamino)pyridin-2-yl)-1H-pyrazolo[3,4-b]pyridine-5-carbonitrile]
IC50 [1]: 2 nM
Papp at 2 h, 3 µM [2]: 39.4 ×10⁻⁶ cm/s
EC50 ([3]; Homo sapiens): 160 nM
